The assay relates to Acinetobacter baumannii ATCC BAA-1797 (MDR). The assay is classed as cell-based. Conditions: Acinetobacter baumannii ATCC BAA-1797 (MDR). The method in brief:
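Test medium: Mueller Hinton II broth with 0.002% polysorbate 80. Organisms were exposed at ~5×10^5 CFU/mL to two-fold peptide dilutions, maximum 32 mcg/mL final, incubated at 35° C for 16–20 hrs; lowest concentration without visible growth recorded.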

With Colistin [reference compound], the minimal inhibitory concentration (MIC) came out at 0.5 µg/mL.

The MIC is the lowest concentration found to suppress growth.

Source of the values: patent publication US20240115654A1, “INTRAVENOUS ADMINISTRATION OF ENGINEERED ANTIMICROBIAL AMPHIPHILIC PEPTIDES” (priority 2021, published 2024).
